The text below walks through data of patent US20210145806A1, “Methods of Treating Brain Cancer and Related Diagnostic Methods” (Emory University, priority 2019, published 2021).

“Also recorded” adds a separate entry of the source. Where two headings read alike, the source gives them in different places.

Assay [1] has as its system patient-derived non-WNT/SHH MB OSC. Briefly: Patient-derived MB OSC, cell death by CC3 staining. It counts as cell-based, human. As to conditions: relative to vehicle controls. On the procedure: Ex vivo, cultures can be used to evaluate drug effects on murine MB tumor cells in their microenvironment. Experiments were performed to determine whether OSC could be used as a “precision medicine” technique in medulloblastoma, e.g., whether biopsy sample from either a newly diagnosed or relapsed medulloblastoma patient could be directly obtained in the operating room, transferred to the lab, and OSCs generated and tested per the protocol, with readout of the efficacy of potential treatments within 3 days. After obtaining fresh tumor tissue from a newly diagnosed patient with a cerebellar tumor, an OSC assay using this patient-derived medulloblastoma specimen was performed. Four tumor slices were treated with vehicle (DMSO or PBS) and 6 tumor slices were treated with WP1066, fisetin, and cisplatin as positive control. […] Therefore this assay can be used at the time of diagnosis, indicating the feasibility of OSC for use in a personalized medicine based testing approach (FIG. 5C) in pediatric brain tumors. Later the neuropathology report confirmed isochromosome 17q in the specimen without MYC or MYCN amplification consistent with a non-WNT/SHH MB.

The subject of assay [2] is SmoA1 murine SHH-activated MB organotypic slice culture. Nature of the assay: Murine MB organotypic slice culture (OSC), cell death by cleaved caspase 3 staining. As to conditions: 24 h treatment; for concentration giving significant increase in cell death (CC3 standardized to DAPI): compared to control; for cell death (CC3 staining), result in words: relative to vehicle control.

The subject of assay [3] is MB tumor stem-like cells (nestin-positive) in SmoA1 OSCs. Briefly: SmoA1 OSC, CC3 and nestin co-staining (death of tumor stem-like cells). The format is cell-based, mouse. On the procedure:
DAPI=nuclear stain, DMSO=vehicle. Treatment of human MB cells and SmoA1 OSCs with WP1066 in combination with fisetin further enhances the inhibition of cell proliferation in vitro induction of tumor cell death diffusely ex vivo, but synergistically kills the tumor stem-like cell population specifically.
Given that STA 3 and YB-1 expression colocalized to the cancer stem cell-like cells of the perivascular niche environment, experiments were performed to determine whether combined treatment with these inhibitors, fisetin and WPHH66, leads: to increased tumor cell and/or tumor stem cell like cell death. The effect of combination treatment was evaluated in the in vitro proliferation and colony formation assays. […] Next, experiments were performed to determine whether this effect was more pronounced in the stem cell compartment, where YB-1 and STAT3 are most highly expressed. SmoA1 MB ex vivo brain slices were treated with WP1066, fisetin, or combined treatment thereof. The slices were immunostained for the tumor stem-like cell marker nestin and the cell death marker CC3 to quantify the amount of cell death in the tumor stem-like cells.

For assay [4], the system named is Group 3-like D556 MB cells. Nature of the assay: Proliferation of Group 3-like MB cells.
Setting [5] is: Homo sapiens, read-out: IC50, inhibition of proliferation, D556.

For `N.N.[Cl][Pt][Cl]` [cisplatin], the “cell death (CC3 staining), result in words” value (shortened to “cell death (CC3 staining)”) in assay [1] was “Increase in cell death”. Moreover, the “concentration giving significant increase in cell death (CC3 standardized to DAPI)” value in assay [2] came to 2 µM.
Consider `O=c1c(O)c(-c2ccc(O)c(O)c2)oc2cc(O)ccc12` [fisetin, 2-(3,4-dihydroxyphenyl)-3,7-dihydroxy-4H-chromen-4-one], for which the results for the “cell death (CC3 staining)” value in assay [1], in assay [1] (listed as Fisetin) and in assay [2] were “Increase in cell death”, “induced cell death” and “induces marked tumor cell death; also recorded: dose-dependent increase in cell death”, respectively. Also, the “percentage of CC3/nestin-positive cells (dead nestin-positive cells)” value in assay [3] is 1.6%. Also, the “concentration giving significant increase in cell death (CC3 standardized to DAPI)” value in assay [2] is greater than 4 µM. In assay [4] (setting [5]), the IC50 came out at 3600 nM.
Regarding `CC(NC(=O)C(C#N)=Cc1cccc(Br)n1)c1ccccc1` (stereo not shown) [WP1066, 3-(6-bromopyridin-2-yl)-2-cyano-N-(1-phenylethyl)acrylamide], the entries for the “cell death (CC3 staining)” value in assay [1] and in assay [2] were “induced cell death; also recorded: Increase in cell death” and “significantly increased cell death; also recorded: induces marked tumor cell death; also recorded: dose-dependent increase in cell death”, respectively. The “percentage of CC3/nestin-positive cells (dead nestin-positive cells)” value in assay [3] was 1.4%. Besides, the “concentration giving significant increase in cell death (CC3 standardized to DAPI)” value in assay [2] was “greater than 1.5 μM”. Also, the IC50 in assay [4] (setting [5]) turned out to be 1500 nM; in assay [4] (read-out: IC50, inhibition of proliferation, D556), 1200 nM.
For the molecule `CS(=O)(=O)OCCCCOS(C)(=O)=O` [Busulfan], in assay [2], the “cell death (CC3 staining)” value is given as “minimal increase in cell death”.
Still for that read-out and setting: in the case of `Nc1nc(=S)c2[nH]cnc2[nH]1` [6-thioguinine] it was “minimal increase in cell death”.
